Data reported in PubChem BioAssay (NCI).
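Results reflect a 48-hour exposure of cells in 96-well plates to compound at five concentrations. Here, GI50 denotes the concentration required for 50% inhibition of growth. TGI: total growth inhibition.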

Columns and labels:
Experiment in all cases: inhibition of tumour cell growth, NCI panel, 48 h
[1] = system: NCI-H226 lung
[2] = system: NCI-H23 lung
[3] = system: NCI-H460 lung
[4] = system: NCI-H522 lung
[5] = system: NCI/ADR-RES ovarian
[6] = system: OVCAR-4 ovarian
[7] = system: OVCAR-5 ovarian
[8] = system: OVCAR-8 ovarian
[9] = system: PC-3 prostate
[10] = system: RPMI-8226 leukemia
[11] = system: RXF 393 renal
[12] = system: SF-268 CNS
[13] = system: SF-295 CNS
[14] = system: SF-539 CNS
[15] = system: SK-MEL-2 melanoma
[16] = system: SK-MEL-28 melanoma
[17] = system: SK-MEL-5 melanoma
[18] = system: SK-OV-3 ovarian
[19] = system: SN12C renal
[20] = system: SNB-19 CNS
[21] = system: SNB-75 CNS
[22] = system: SR leukemia
[23] = system: SW-620 colon
[24] = system: T-47D breast
[25] = system: TK-10 renal
[26] = system: U251 CNS
[27] = system: UACC-257 melanoma
[28] = system: UACC-62 melanoma
[29] = system: UO-31 renal

Compound: Cc1ccc(-c2nnc(SCc3ccc(O)c4ncccc34)n2-c2ccccc2)cc1
- GI50 [1]: 973 nM
- TGI [1]: > 100000 nM
- GI50 [2]: 254 nM
- TGI [2]: > 39800 nM
- GI50 [3]: 38.2 nM
- TGI [3]: 1580 nM
- GI50 [4]: 305 nM
- TGI [4]: 4240 nM
- GI50 [5]: 147 nM
- TGI [5]: 2270 nM
- GI50 [6]: 431 nM
- TGI [6]: > 100000 nM
- GI50 [7]: 1130 nM
- TGI [7]: > 100000 nM
- GI50 [8]: 175 nM
- TGI [8]: 2140 nM
- GI50 [9]: 164 nM
- TGI [9]: > 100000 nM
- GI50 [10]: 232 nM
- TGI [10]: > 100000 nM
- GI50 [11]: 399 nM
- TGI [11]: 24000 nM
- GI50 [12]: 90.6 nM
- TGI [12]: 10900 nM
- GI50 [13]: 265 nM
- TGI [13]: 4270 nM
- GI50 [14]: 272 nM
- TGI [14]: 3160 nM
- GI50 [15]: 276 nM
- TGI [15]: 875 nM
- GI50 [16]: 376 nM
- TGI [16]: > 100000 nM
- GI50 [17]: 337 nM
- GI50 [18]: 370 nM
- TGI [18]: 4050 nM
- GI50 [19]: 329 nM
- TGI [19]: > 100000 nM
- GI50 [20]: 231 nM
- TGI [20]: 31100 nM
- GI50 [21]: 248 nM
- TGI [21]: 2680 nM
- GI50 [22]: 78.2 nM
- TGI [22]: > 100000 nM
- GI50 [23]: 192 nM
- TGI [23]: > 100000 nM
- GI50 [24]: 289 nM
- TGI [24]: 3530 nM
- GI50 [25]: 249 nM
- TGI [25]: 4400 nM
- GI50 [26]: 98.9 nM
- TGI [26]: 1740 nM
- GI50 [27]: 388 nM
- TGI [27]: 4220 nM
- GI50 [28]: 347 nM
- TGI [28]: 2210 nM
- GI50 [29]: 155 nM
- TGI [29]: 1260 nM
